# According to patent US10494332B2, “Protein tyrosine phosphatases or SHP2 inhibitors and uses thereof” (Indiana University Research and Technology Corporation, priority 2015, dated 2019):
# Where “and” joins values, the source holds several entries; their conditions need not be identical. Identical values can stand only once. Entries after “also recorded” stand apart in the source; their conditions may differ. Like-named read-outs stand apart in the source and are kept apart here.
# Tests used:
# SHP2 [1] = target: T1, SHP2 (Homo sapiens, UniProt Q06124); test: SHP2 phosphatase inhibition assay (pNPP); type: biochemical; settings: for Fold selectivity for SHP2 against PTPs examined: cefsulodin: with the exception of SHP1; for Mode of SHP2 inhibition: with respect to pNPP
# T1 sequence (Q06124 224-528): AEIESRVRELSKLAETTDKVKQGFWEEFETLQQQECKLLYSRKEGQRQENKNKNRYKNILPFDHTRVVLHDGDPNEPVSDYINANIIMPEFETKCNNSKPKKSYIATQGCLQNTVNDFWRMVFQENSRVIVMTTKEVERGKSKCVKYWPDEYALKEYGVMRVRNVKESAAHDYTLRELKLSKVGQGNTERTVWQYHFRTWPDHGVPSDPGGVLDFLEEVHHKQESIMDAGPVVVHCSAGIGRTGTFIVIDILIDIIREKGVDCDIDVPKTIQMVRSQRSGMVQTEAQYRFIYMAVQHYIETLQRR
# SHP2/E508A = SHP2/E508A (Homo sapiens, UniProt Q06124, E508A); test: SHP2 mutant inhibition assay (pNPP); type: biochemical; settings: pH 7.0
# SHP2/R362A = SHP2/R362A (Homo sapiens, UniProt Q06124, R362A); test: SHP2 mutant inhibition assay (pNPP); type: biochemical
# [2] = Stability in buffer solutions by LC-MS; type: physicochemical
# Protocol: (§1) Agilent Technologies 6130 quadrupole LC-MS instrument was used for the LC-MS studies. A C18 reserved phase column (phenomenex, 50×4.6 mm) was used as stationary phase, water and methanol (both containing 0.1% formic acid) were used as mobile phase (gradient: 0-100% methanol, flow 0.8 mL/min, run time 15 minutes), and UV absorbance at the fixed wavelength of 254 nm and positive and negative ESI-MS data were recorded. The sample was adjusted to have a concentration at 0.1 mg/mL, and the injection volume of each sample was 0.2 μL. The retention time and corresponding ESI-MS data were used as identity of molecules.
# SHP2 [3] = target: SHP2 (Homo sapiens, UniProt Q06124); test: Covalent modification of SHP2 by QTOF ESI-MS / LC-MS; settings: 100 μM compound; cefsulodin three hours, phenyl vinyl sulfone 10 minutes
# Protocol: Agilent 6520 Accurate-Mass was used for the Q-TOF ESI-MS studies. Water and acetonitrile (both containing 0.1% formic acid) were used as eluent (80% water, flow 50 μL/min, run time 5 minutes). ESI positive mode was used with mass range from 300 to 1700, the gas temperature was 325° C., and vaporizer temperature was: […]. The sample was adjusted to have a concentration at 0.1 mg/mL, the injection volume of each sample was 1 μL. Mass hunter software was used for protein deconvolution data analysis to calculate the molecular weight of the protein.
# as §1
# PTPμ = PTPμ (Homo sapiens, UniProt P28827); test: biochemical
# PP5 = target: T2, PP5 (Homo sapiens, UniProt P53041); test: biochemical
# T2 sequence (P53041 1-499): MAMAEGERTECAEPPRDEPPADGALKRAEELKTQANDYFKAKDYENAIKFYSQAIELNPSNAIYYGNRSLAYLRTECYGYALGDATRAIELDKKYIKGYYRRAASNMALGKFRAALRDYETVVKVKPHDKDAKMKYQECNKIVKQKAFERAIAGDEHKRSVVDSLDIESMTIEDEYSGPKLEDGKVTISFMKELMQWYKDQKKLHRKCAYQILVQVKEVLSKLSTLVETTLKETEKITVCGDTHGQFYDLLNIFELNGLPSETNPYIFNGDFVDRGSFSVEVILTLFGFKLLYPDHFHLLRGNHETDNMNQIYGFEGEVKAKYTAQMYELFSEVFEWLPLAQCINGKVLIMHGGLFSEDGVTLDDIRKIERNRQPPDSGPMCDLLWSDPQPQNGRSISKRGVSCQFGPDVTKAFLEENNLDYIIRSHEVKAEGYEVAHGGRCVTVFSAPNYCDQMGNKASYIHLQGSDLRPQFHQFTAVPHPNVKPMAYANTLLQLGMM
# [4] = system: H1975 non-small cell lung cancer (NSCLC) cell line; test: MTT cell proliferation assay; type: cell-based, human; settings: 20 μM and 40 μM, 2 days
# Protocol: (§2) Human non-small cell lung carcinoma cell line H1975 was cultured at 37° C. and 5% CO2 in RPMI-1640 (Corning) supplemented with 10% fetal bovine serum (HyClone). Human breast cancer cell line MDA-MB-231 was cultured in DMEM supplemented with 10% fetal bovine serum. For cell proliferation assay, 2˜3×10^3 cells were seeded in each well of 96-well plates. After treating cells with compounds for 2 days, cells were incubated with 50 μg/ml MTT (3-(4,5-Dimethylthiazol-2-yl)-2,5-diphenyltetrazolium bromide) for ˜3-4 hours. Then, the culture medium was removed, DMSO was added to dissolve the formazan crystals. Wells containing only media were used for background correction. The optical density was measured spectrophotometrically at 540 nm. For signaling analysis, cells were serum-starved overnight followed by treatment with vehicle or compounds for 3 hours, and then either left un-stimulated or stimulated with 5 μg/ml EGF or 10 nM PMA (Sigma) for indicated time. Cells were lysed and the lysates were electrophoresed on a 10% polyacrylamide gel, and then transferred to a nitrocellulose membrane, and probed with anti-phospho-ERK1/2 and anti-ERK1/2 (Cell Signaling) antibodies followed by incubation with horseradish peroxidase-conjugated secondary antibodies. The blots were developed by the enhanced chemiluminescence technique using the SuperSignal West Pico Chemiluminescent substrate (Pierce).
# [5] = system: MDA-MB-231 breast cancer cell line; test: MTT cell proliferation assay; type: cell-based, human; settings: 20 μM and 40 μM, 2 days
# Protocol: as §2
# [6] = system: EGF-mediated ERK1/2 phosphorylation in H1975 cells; test: EGF-induced ERK1/2 phosphorylation immunoblot; type: cell-based, human; settings: compound 7 at 40 μM
# Protocol: as §2
# [7] = system: PMA-stimulated ERK1/2 phosphorylation; test: PMA-induced ERK1/2 phosphorylation immunoblot; type: cell-based, human
# Protocol: as §2
# SKBR3 cells = test: Cell growth in 3D Matrigel; type: cell-based; settings: 5 days
# Protocol: (§3) Approximately 300,000 SKBR3 cells were seeded into 150 μL of growth factor reduced Matrigel (BD) that was then covered with 2 mLs of media containing either 20 μL vehicle (DMSO) or the indicated concentrations of compound 2. Cells were then imaged at 24-hour intervals using a NIKON SMZ1500 stereomicroscope. After 5 days the cells were recovered from the Matrigel by the following method. Media was aspirated and cells were washed with 500 μL of cold PBS. 150 μL of RIPA lysis buffer supplemented with ProteCEASE-50. EDTA Free protease inhibitors (GBiosciences) was added to the Matrigel. Cells were scraped into a slurry and instantly frozen using dry ice for 5 minutes. After thawing tubes were spun down at 4° C. for 10 minutes at 14K rpm. Proteins were then resolved by SDS-PAGE and the relative levels of total and phospho-ERK1/2 were detected by immunoblot analysis.
# [8] = system: ERK1/2 phosphorylation in SKBR3 cells; test: ERK1/2 immunoblot of cells recovered from Matrigel; type: cell-based; settings: 5 days
# Protocol: as §3
# M. tuberculosis H37Rv = test: Microplate Alamar Blue assay (MABA) MIC; type: cell-based, Mycobacterium tuberculosis
# M. tuberculosis Erdman = test: Microplate Alamar Blue assay (MABA) MIC; type: cell-based; settings: Mycobacterium tuberculosis, minimum inhibitory concentration, read-out: In vitro anti-Mtb activity MABA-MIC Erdman
# [9] = system: M. tuberculosis (Erdman and H37Rv) in J774 macrophages; test: Macrophage assay: growth of M. tuberculosis in IFN-γ activated J774 macrophages; type: cell-based, Mycobacterium tuberculosis
# [10] = Pharmacokinetics and bioavailability in guinea pigs; type: in vivo, guinea pig; settings: oral
# Protocol: All drugs were suspended in 1% DMSO, 0.5% DEA, 48.5% PEG 400, and 50% water. Blood was collected for analysis of these drugs in plasma pre-dose and at 1, 4, 8, 24, and 48 h post-dose. Plasma was separated and stored at −70° C. until analysis. Plasma drug concentrations were determined by liquid chromatography-mass spectrometry and liquid chromatography-tandem mass spectrometry over the concentration range of 0.005-1 mg/L with dilution to 10 mg/L. Pharmacokinetic variables were calculated from individual drug concentration-time data using non-compartmental methods as implemented in WinNonlin version 5.0 (Pharsight, Mountain View, Calif.) as described earlier.
# [11] = Example 9: SHP2 catalytic domain 20 nM, pNPP 3 mM, pH 7.0, 25° C., read-out: IC50 SHP2
# Sequence of PTPμ (P28827 21-1452): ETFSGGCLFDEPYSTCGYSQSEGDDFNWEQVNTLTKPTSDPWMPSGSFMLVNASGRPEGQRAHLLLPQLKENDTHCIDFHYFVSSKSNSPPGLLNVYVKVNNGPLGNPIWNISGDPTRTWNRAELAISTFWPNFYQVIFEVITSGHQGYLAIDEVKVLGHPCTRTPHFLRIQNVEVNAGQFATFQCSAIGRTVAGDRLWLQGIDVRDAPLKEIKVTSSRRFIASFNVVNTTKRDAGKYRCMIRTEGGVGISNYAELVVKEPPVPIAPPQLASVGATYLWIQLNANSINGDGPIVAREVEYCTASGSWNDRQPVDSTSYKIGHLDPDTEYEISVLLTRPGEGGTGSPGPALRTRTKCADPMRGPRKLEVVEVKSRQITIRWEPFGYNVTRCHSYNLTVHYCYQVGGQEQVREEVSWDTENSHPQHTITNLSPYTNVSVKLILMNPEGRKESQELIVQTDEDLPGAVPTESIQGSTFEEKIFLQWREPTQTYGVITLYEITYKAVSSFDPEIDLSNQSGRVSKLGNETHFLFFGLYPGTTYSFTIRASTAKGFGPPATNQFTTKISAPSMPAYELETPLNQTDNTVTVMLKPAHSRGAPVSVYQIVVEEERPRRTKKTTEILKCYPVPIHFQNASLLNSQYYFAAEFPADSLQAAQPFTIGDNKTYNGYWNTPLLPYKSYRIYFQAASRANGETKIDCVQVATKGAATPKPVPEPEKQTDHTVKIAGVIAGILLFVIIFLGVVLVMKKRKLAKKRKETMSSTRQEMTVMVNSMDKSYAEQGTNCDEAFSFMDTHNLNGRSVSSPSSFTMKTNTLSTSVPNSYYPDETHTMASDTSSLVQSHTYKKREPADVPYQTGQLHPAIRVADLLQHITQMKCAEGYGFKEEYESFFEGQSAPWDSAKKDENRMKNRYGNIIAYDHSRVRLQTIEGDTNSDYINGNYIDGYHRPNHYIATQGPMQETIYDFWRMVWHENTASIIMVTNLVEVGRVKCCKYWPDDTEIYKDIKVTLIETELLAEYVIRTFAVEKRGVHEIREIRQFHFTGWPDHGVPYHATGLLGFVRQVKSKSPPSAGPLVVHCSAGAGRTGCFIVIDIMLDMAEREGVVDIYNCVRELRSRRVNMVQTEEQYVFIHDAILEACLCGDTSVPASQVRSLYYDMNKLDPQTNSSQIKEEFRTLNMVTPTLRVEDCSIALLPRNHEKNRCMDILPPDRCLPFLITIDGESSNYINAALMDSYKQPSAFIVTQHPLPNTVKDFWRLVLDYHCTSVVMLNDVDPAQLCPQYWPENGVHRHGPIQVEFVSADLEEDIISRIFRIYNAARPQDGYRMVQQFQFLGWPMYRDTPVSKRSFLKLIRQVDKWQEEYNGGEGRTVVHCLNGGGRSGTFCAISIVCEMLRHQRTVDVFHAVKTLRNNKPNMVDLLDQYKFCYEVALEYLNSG
# Sequence of SHP2/R362A (Q06124 224-528 R362A): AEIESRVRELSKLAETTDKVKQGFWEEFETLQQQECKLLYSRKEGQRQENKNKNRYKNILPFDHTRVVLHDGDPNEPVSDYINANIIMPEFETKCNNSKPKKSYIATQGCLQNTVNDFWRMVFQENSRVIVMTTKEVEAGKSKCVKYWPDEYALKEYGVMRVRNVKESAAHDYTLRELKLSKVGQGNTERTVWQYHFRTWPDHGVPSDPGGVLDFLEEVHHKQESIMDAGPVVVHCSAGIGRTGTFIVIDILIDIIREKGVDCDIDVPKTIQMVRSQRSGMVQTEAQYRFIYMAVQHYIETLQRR
# Sequence of SHP2/E508A (Q06124 224-528 E508A): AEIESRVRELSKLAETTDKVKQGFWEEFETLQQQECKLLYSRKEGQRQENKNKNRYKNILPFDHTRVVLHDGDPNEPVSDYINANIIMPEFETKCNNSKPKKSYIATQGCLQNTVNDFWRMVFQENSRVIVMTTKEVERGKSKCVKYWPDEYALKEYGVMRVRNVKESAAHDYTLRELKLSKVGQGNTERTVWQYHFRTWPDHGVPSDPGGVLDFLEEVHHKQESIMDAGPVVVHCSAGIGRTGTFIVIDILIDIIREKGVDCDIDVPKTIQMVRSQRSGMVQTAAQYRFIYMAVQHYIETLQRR
smiles,measurement,setting,value
"NC(=O)c1cc[n+](CC2=C(C(=O)O)N3C(=O)[C@@H](NC(=O)[C@@H](c4ccccc4)S(=O)(=O)[O-])[C@H]3SC2)cc1 [Cefsulodin, reference compound]",IC50,SHP2 [1]; [11],16.8 µM and 16.7 µM
same,Ki,"SHP2 [1]; Lineweaver-Burk, pNPP as substrate",6.6 ± 0.2 µM
same,Fold selectivity for SHP2 against PTPs examined,SHP2 [1],greater than 10 fold
same,IC50,"SHP2 [1]; incubated with SHP2 for 30 minutes prior to addition of pNPP, read-out: IC50 SHP2, inhibitor pre-mixed with SHP2",16.8 ± 1.8 µM
same,IC50,"SHP2 [1]; incubated with pNPP for 30 minutes prior to addition of SHP2, read-out: IC50 SHP2, inhibitor pre-mixed with pNPP",17.5 ± 2 µM
same,Mode of SHP2 inhibition,SHP2 [1],competitive inhibitor
same,Mode of SHP2 inhibition,SHP2 [1]; listed as cefsulodin,competitive and reversible SHP2 inhibitor
same,IC50,SHP2/E508A,19 ± 1 µM
same,IC50,"SHP2/R362A; pNPP, pH 7.0",46.5 ± 4.9 µM
same,Fold increase of IC50 by replacement of R362 with alanine,SHP2/R362A; vs wild-type SHP2,3 fold
same,Degradation in pH 5.8 MES buffer,"[2]; 20 mM MES, 250 mM NaCl, 1 mM EDTA, LC-MS",negligible
same,Degradation in pH 7.4 CBTP buffer,"[2]; 33 mM Citric acid, 67 mM BIS-TRIS Propane, LC-MS",obvious
same,Degradation in CBTP buffer at pH 9.1,[2]; LC-MS,further accelerated
same,Time stable in MES buffer pH=5.8,[2]; LC-MS,at least 2 days
same,Time until compound was gone in CBTP buffer pH=9.1,[2]; LC-MS,≤ 12 h
same,Time to complete degradation under crystallization condition,"[2]; final pH=7.1, 20° C., with SHP2 and DTT",≤ 2 days
same,Covalent adduct formation with SHP2 (QTOF ESI-MS),SHP2 [3],no covalent adduct formation
same,IC50,PTPμ,> 200 µM
same,IC50,PP5,> 200 µM
"O=C(Nc1ccc(I)cc1)C(=O)Nc1ccc(NC(=O)C(c2ccccc2)S(=O)(=O)O)cc1 (stereo not shown) [Compound 2, 2-((4-(2-((4-iodophenyl)amino)-2-oxoacetamido)phenyl)amino)-2-oxo-1-phenylethanesulfonic acid]",IC50,SHP2 [1]; [11],1.51 ± 0.06 µM
same,Fold selectivity for SHP2 against PTPs examined,SHP2 [1],at least 4 fold
same,H1975 cell proliferation (MTT),[4],reduce H1975 cell proliferation in a dose dependent manner; also recorded: dose dependently inhibited; also recorded: significantly (**p<0.01) reduced cell proliferation
same,MDA-MB-231 cell survival/growth (MTT),[5],dose dependently inhibited; also recorded: significantly (**p<0.01) reduced cell survival
same,Effect on EGF-mediated ERK1/2 phosphorylation,[6],reduced EGF-mediated ERK1/2 phosphorylation in a dose-dependent manner; also recorded: decrease the EGF-mediated ERK1/2 phosphorylation in a dose dependent manner
same,Effect on PMA-stimulated ERK1/2 phosphorylation,[7],no effect on PMA-stimulated ERK1/2 phosphorylation
same,SKBR3 cell growth in Matrigel,SKBR3 cells; 20 μM,partial inhibition
same,SKBR3 cell growth in Matrigel,SKBR3 cells; 40 μM,almost completely absent
same,ERK1/2 activity in SKBR3 cells in Matrigel,[8]; 20 μM,partial inhibition
same,ERK1/2 activity in SKBR3 cells in Matrigel,[8]; 40 μM,barely detectable
same,IC50,PTPμ,> 10 µM
same,IC50,PP5,> 10 µM
O=C(O)c1cc2c(C#Cc3cccc(C(F)(F)F)c3)c(-c3ccccc3)oc2cc1O [Compound L01Z08],Activity in standard MIC assay,M. tuberculosis H37Rv,inactive
same,MIC,"M. tuberculosis H37Rv; Mycobacterium tuberculosis, H37RV, minimum inhibitory concentration, read-out: In vitro anti-Mtb activity MABA-MIC H37Rv",> 10 µM
same,MIC,M. tuberculosis Erdman,> 10 µM
same,Anti-Mtb activity in infected macrophages,"[9]; J774A.1 macrophages, low micromolar concentrations",potent anti-Mtb activity
same,IC90,"[9]; Mycobacterium tuberculosis, J774, IC90 in macrophages activated with interferon-γ, read-out: In vitro anti-Mtb activity, Mtb-infected macrophages (IC90)",< 5 µM
same,Oral bioavailability and half-life in guinea pigs,[10],good oral bioavailability and half-life
